Measurements published in patent US20240191273A1, “ANTHOCYANIN BIOPRODUCTION IN A CELL-FREE MANUFACTURING SYSTEM” (DEBUT BIOTECHNOLOGY, INC., priority 2021, published 2024).

Experiments:
[1] = solubility of cyanidin in water; assay type: physicochemical
[2] = stability of cyanidin in solution; assay type: physicochemical

Compound: Oc1cc(O)c2cc(O)c(-c3ccc(O)c(O)c3)[o+]c2c1 [cyanidin]
- solubility [1]: 49 µg/mL
- stability in water ([2]; in water at 49 mg/L): degrade within minutes
- pH of highest stability ([2]; pH of the solution): < 5.0
